# Data taken from patent publication EP2057188B1 (priority 2006, dated 2008).
# Where two headings read alike, the source gives them in different places. Ends that are not written are not given here.
# Assays:
# human GIP receptor [1] = conditions: read-out: GIP RBA; GIP receptor binding; RIN where stated; unit nM printed for these values
# human GIP receptor [2] = biological target: T1, human GIP receptor (Homo sapiens, UniProt P48546)
# [3] = at doses of 100µg; cited from earlier work
# [4] = assay type: in vivo, rats; design: AUC Change in Insulin Pre IVGTT / AUC Change in Insulin Post IVGTT: unit not given beside the values; conditions: for insulin levels prior to the glucose challenge / insulinotropic response to an intravenous glucose challenge: 100 pmol/kg/min infusion dose in rats
# [5] = Body composition in DIO mice; assay type: in vivo, C57BL/6J mice; conditions: summary of properties
# Source text: An exemplary assay can be one that involves utilization of a diet-induced obese (DIO) mouse model for metabolic disease. […] During the study, the mice can continue to eat their high-fat diet. Water can be provided ad libitum throughout the study.
# DIO mice can be implanted with subcutaneous (SC) intrascapular osmotic pumps to deliver either vehicle (50% dimethylsulfoxide (DMSO) in water) or a compound of the invention. […] Body weights and food intake can be measured over regular intervals throughout the study periods. Respiratory quotient (RQ, defined as CO2 production ÷ O2 consumption) and metabolic rate can be determined using whole-animal indirect calorimetry (Oxymax, Columbus Instruments, Columbus, OH). The mice can be euthanized by isoflurane overdose, and an index of adiposity (bilateral epididymal fat pad weight) measured. Moreover, prior to determination of epididymal weight, body composition (lean mass, fat mass) for each mouse can be analyzed using a Dual Energy X-ray Absorptiometry (DEXA) instrument per manufacturer's instructions (Lunar Piximus, GE Imaging System).
# [6] = assay type: in vivo, NIH/Swiss mice
# Procedure: In Figure 3A, bars represent mean ± sd, n=6-10. […] Gavage (1.5g/kg) was given at t=0. Sample was taken at t=30 min. […] In Figure 3B, points represent mean ± sem, n=8-15.
# (§1) In Figure 13B bars represent mean +/- sd. Peptide was injected IP at t = -5 minutes into 4-hour fasted NIH/Swiss female mice. Gavage (1.5g/kg) was given at t = 0. […] In Figure 17 points represent mean +/- sem. […] Samples were taken at t=60, t=120 and t=180.
# [7] = Calcium lowering (GIP hybrids, Figure 23B); assay type: in vivo; conditions: summary of properties
# Procedure: as §1
# [8] = for acute food intake: IP at t=0, consumed at t=30, 60, 120 min
# [9] = Gastric emptying (GIP hybrids, Figure 23A); assay type: in vivo; conditions: summary of properties
# Procedure: as §1
# [10] = assay type: in vivo, db/db mice; conditions: Figure 4; GIP at a 10 fold higher dose
# Procedure: Peptide was injected IP at t=0 immediately following baseline sample into 2-hour fasted db/db mice.
# [11] = biological target: cardiomyocyte Gs- and Gi-coupled receptors; experiment: cAMP assay in neonatal cardiomyocytes; assay type: cell-based, rat
# Procedure: Activation of cardiomyocyte Gs- and Gi-coupled receptors was determined as a measure of cAMP production.
# Neonatal cardiomyocytes were isolated using a commercially available system. […] Sprague Dawley neonatal rats (1-2 days old) were decapitated and the beating heart dissected out into digestion buffer (Cellutron D1 buffer) to dissociate cells. […] The resuspended cells incubated in buffer (Cellutron D3 buffer) for sufficient time to allow optimal dispersion and minimize the need for pipetting to break up clumps. Cells released from the first 2 digestions were discarded since a significant portion of these is red blood cells. Resuspended cells were filtered and allowed to pre-plate for 1 hour on plastic in an incubator in NS media (Cellutron, NJ) in order to remove fibroblasts. After 1 hour of pre-plating, floating cells are removed and the flask rinsed with NS media. The floating cells and the cells in the rinse media were combined and counted. Residual red blood cells, which are smaller that the cardiac myocytes, were not counted.
# At Day 1, the NS media was replaced with fresh NS media.
# Dose response was determined.
# For Gs assays the positive control was 10uM forskolin and negative control was buffer. For Gi assays the positive control was buffer and the negative control was 10uM forskolin.
# [12] = Circulatory system effects in conscious rats by telemetry; assay type: in vivo, Harlan Sprague Dawley rats
# [13] = assay type: in vivo, C57BL/6 mice; conditions: for body weight change in diet-induced-obese mice: infused via osmotic pump for 2 weeks, high-fat diet
# [14] = Glucose in rats (summary table); assay type: in vivo; conditions: summary of properties
# [15] = assay type: in vivo, NIH/Swiss mice; remark: listed apart in the source
# Procedure: Gavage (1.5g/kg) was given at t=0. Sample was taken at t=30 min.
# [16] = IVGTT duration of action assay, single SC injection; assay type: in vivo, rat; conditions: insulin levels at 0-30 minutes as AUC; rat
# Procedure: In the typical IVGTT assays the test sample was administered by IV infusion. The IV infusion of sample was initiated at t = -30min and continued through t = 90. IV glucose was given at t = 0. To determine a duration of action using the IVGTT assay, the sample was injected SC as a single injection at one time point indicated (e.g., t = -240, -120, -60 or -30) prior to administration of glucose. IV glucose was given at t = 0.
# human GIP receptor [17] = biological target: T1, human GIP receptor; experiment: biochemical; conditions: read-out: %Inh 10nM
# [18] = cAMP production, experiment of Figures 18A/18B
# [19] = cardiomyocyte Gs-coupled receptor activation, three independent experiments
# [20] = 80 nmol/kg, remote intravenous dosing
# T1 sequence (P48546 22-466 limits assumed): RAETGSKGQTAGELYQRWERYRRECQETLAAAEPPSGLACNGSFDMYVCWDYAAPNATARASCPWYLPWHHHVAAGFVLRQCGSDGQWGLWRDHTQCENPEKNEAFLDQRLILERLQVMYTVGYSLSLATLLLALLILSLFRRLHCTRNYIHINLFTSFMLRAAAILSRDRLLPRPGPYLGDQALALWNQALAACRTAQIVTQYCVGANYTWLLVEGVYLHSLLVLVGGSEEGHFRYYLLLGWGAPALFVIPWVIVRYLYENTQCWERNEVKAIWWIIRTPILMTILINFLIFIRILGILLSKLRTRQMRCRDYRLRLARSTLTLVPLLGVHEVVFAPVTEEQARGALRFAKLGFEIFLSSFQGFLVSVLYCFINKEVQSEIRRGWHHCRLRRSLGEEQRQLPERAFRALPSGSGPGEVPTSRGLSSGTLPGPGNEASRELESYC
compound,measurement,setting,value
YSDGTFISDYSIAMDKlHQQDFVNWLLAQKPKKIRYS-NH2 [Compound 0601GIP4386],IC50,human GIP receptor [1],156 nM
HGEGTLISDYSIAMDKIHQQDFVNWLLAQKPKKIRYS-NH2 [0601 GIP48 43],"(%Inh 10nm,GIP-LF Assay)",human GIP receptor [2],3(%Inh 10nM)
YAEGTFISDYSIAMDKIHQQDFVNWLLAQKGKKNDWKHNITQ-OH [GIP],inhibition of gastric emptying,[3],weakly active or inactive
same,insulin levels prior to the glucose challenge,[4],significant rise in insulin levels
same,insulinotropic response to an intravenous glucose challenge,[4],significant enhancement of the insulinotropic response
same,Body Comp (mDIO),[5],No effect on lean mass
same,OGTT,[6]; summary of properties,decreases
same,iCa,[7],not active
same,acute food intake,[8],did not acutely inhibit food intake
same,Food Intake,[8]; summary of properties,not active
same,Gastric Emptying,[9],not active
same,glucose lowering in a diabetic mouse model,[10],modest and wanes over time
same,EC(50),[11]; [18],9.1 nM
same,EC(50),[11]; [19],15.6 nM
same,dP/dt (inotropic effect),[12]; [20],positive inotropic effect
same,heart rate,[12]; [20],chronotropic (heart rate elevating) effect
same,mean arterial pressure,[12]; [20],no effect
same,Heart Rate (rat),"[12]; rat, summary of properties",increases
same,MAP. (rat),"[12]; rat, summary of properties",not active
same,BWt (mDIO),"[13]; DIO mice, summary of properties",not active
same,body weight change in diet-induced-obese mice,[13],no effect on body weight change
same,Glucose rats,[14],not active
same,Glucose mice,"[15]; mice, summary of properties",weak
YaEGTFISDYSIAMDKIHQQDFVNWLLAQKPSSGAPPPS-NH2 [Compound 0601GIP3794],insulin levels prior to the glucose challenge,[4],significant rise in insulin levels
same,insulinotropic response to an intravenous glucose challenge,[4],significant enhancement of the insulinotropic response
same,Standard IVGTT assay IV infusion (100 pmol/min/kg),"[4]; insulin levels at 0-30 minutes as AUC, rat",249
same,AUC Change in Insulin Post IVGTT,"[4]; rat, in vivo",173.1+-29.4
same,AUC Change in Insulin Pre IVGTT,"[4]; rat, in vivo",28.8 +-10.7
same,OGTT ED50,"[6]; mouse, in vivo",~2 nmol/kg
same,Duration of action in assay SC inj T = -30 min,[16],198
same,Duration of action in assay SC inj T = -60 min,[16],159
same,Duration of action in assay SC inj T = -120 min,[16],204
same,Duration of action in assay SC inj T= -240 min,[16],79
same,acute food intake,[8],did not acutely inhibit food intake
same,glucose lowering in a diabetic mouse model,[10],pronounced and long-acting effect in lowering glucose
same,EC(50),[11]; [18],11.7 nM
same,EC(50),[11]; [19],29.8 nM
same,dP/dt (inotropic effect),[12]; [20],prolonged inotropic effect
same,heart rate,[12]; [20],transient relative to GIP
same,mean arterial pressure,[12]; [20],decreased mean arterial pressure
same,systolic and diastolic pressures,"[12]; 80 nmol/kg, remote intravenous dosing, compared to vehicle or GIP",sustained lowering of systolic and diastolic pressures
same,body weight change in diet-induced-obese mice,[13],without a concomitant reduction in body weight
same,Basal Glucose Lowering at 80 nmol/Kg,[15]; AUC180,-9%
same,Basal Glucose Lowering at 80 nmol/Kg,[15]; AUC240,-7 to-20%
same,glucose lowering in normal mice,"[15]; Figures 3A and 3B, NIH/Swiss mice",significantly more efficacious than full length GIP
same,glucose lowering profile,"[15]; Figures 8A and 8B, IP at t=0, 2-hour fasted NIH/Swiss mice",gradually increasing activity that peaks at t=120min
CC[C@H](C)[C@H](NC(=O)[C@H](CO)NC(=O)[C@H](Cc1ccc(O)cc1)NC(=O)[C@H](CC(=O)O)NC(=O)[C@H](CO)NC(=O)[C@@H](NC(=O)[C@H](Cc1ccccc1)NC(=O)[C@@H](NC(=O)CNC(=O)[C@H](CC(=O)O)NC(=O)[C@H](C)NC(=O)[C@@H](N)Cc1ccc(O)cc1)[C@@H](C)O)[C@@H](C)CC)C(=O)N[C@@H](C)C(=O)N[C@@H](CCSC)C(=O)N[C@@H](CC(=O)O)C(=O)N[C@@H](CCCCN)C(=O)N[C@H](C(=O)N[C@@H](Cc1c[nH]cn1)C(=O)N[C@@H](CCC(N)=O)C(=O)N[C@@H](CCC(N)=O)C(=O)N[C@@H](CC(=O)O)C(=O)N[C@@H](Cc1ccccc1)C(=O)N[C@H](C(=O)N[C@@H](CC(N)=O)C(=O)N[C@@H](Cc1c[nH]c2ccccc12)C(=O)N[C@@H](CC(C)C)C(=O)N[C@@H](CC(C)C)C(=O)N[C@@H](C)C(=O)N[C@@H](CCC(N)=O)C(=O)N[C@@H](CCCCN)C(=O)N1CCC[C@H]1C(=O)N[C@@H](CCCCN)C(=O)N[C@@H](CCCCN)C(=O)N[C@H](C(=O)N[C@@H](CCCNC(=N)N)C(=O)N[C@@H](Cc1ccc(O)cc1)C(=O)N[C@@H](CO)C(N)=O)[C@@H](C)CC)C(C)C)[C@@H](C)CC [Compound 0601GIP4390],inhibition at 0.01 µM,human GIP receptor [17],90.3%
